Drawing on ChEMBL document CHEMBL4387741, “Optimization of novel reversible Bruton's tyrosine kinase inhibitors identified using Tethering-fragment-based screens” (Bioorg Med Chem, 2019), this text covers inhibition for 2 compounds.

In assay [1] the target is Calcium/calmodulin-dependent protein kinase type IV (Homo sapiens) (UniProt Q16566). The assay can be described thus: Inhibition of wild-type human partial length CAMK4 (A22 to A322 residues) expressed in bacterial expression system at 10 uM by Kinomescan method relative to control.
The target of assay [2] is Vascular endothelial growth factor receptor 2 (Homo sapiens) (UniProt P35968). The assay can be described thus: Inhibition of wild-type human partial length VEGFR2 (R787 to P1253 residues) expressed in mammalian expression system at 10 uM by Kinomescan method relative to control.
Assay [3] has as its system ALK tyrosine kinase receptor (Homo sapiens), Q9UM73 [L1196M]. As to the kind of experiment: Inhibition of wild-type human partial length ALK L1196M mutant (I1088 to E1409 residues) expressed in mammalian expression system at 10 uM by Kinomescan method relative to control.
The target in assay [4] is Ephrin type-B receptor 4 (Homo sapiens) (UniProt P54760). The assay can be described thus: Inhibition of wild-type human partial length EPHB4 (H585 to G892 residues) expressed in bacterial expression system at 10 uM by Kinomescan method relative to control.
Assay [5] has as its target Mitogen-activated protein kinase kinase kinase kinase 2 (Homo sapiens) (UniProt Q12851). As to the kind of experiment: Inhibition of wild-type human partial length MAP4K2 (M1 to G318 residues) expressed in mammalian expression system at 10 uM by Kinomescan method relative to control.
Assay [6] addresses Mitogen-activated protein kinase kinase kinase 14 (Homo sapiens) (UniProt Q99558). As to the kind of experiment: Inhibition of wild-type human partial length NIK (L318 to P947 residues) expressed in mammalian expression system at 10 uM by Kinomescan method relative to control.
Assay [7] addresses Serine/threonine-protein kinase WNK2 (Homo sapiens) (UniProt Q9Y3S1). As to the kind of experiment: Inhibition of wild-type human partial length WNK2 (V47 to D482 residues) expressed in mammalian expression system at 10 uM by Kinomescan method relative to control.
The target in assay [8] is TRAF2 and NCK-interacting protein kinase (Homo sapiens) (UniProt Q9UKE5). The assay can be described thus: Inhibition of wild-type human partial length TNIK (D4 to K311 residues) expressed in bacterial expression system at 10 uM by Kinomescan method relative to control.
Assay [9] deals with Ribosomal protein S6 kinase alpha-4 (Homo sapiens) (UniProt O75676). As to the kind of experiment: Inhibition of wild-type human partial length C-terminal RPS6KA4 kinase domain 2 (M375 to T705 residues) expressed in mammalian expression system at 10 uM by Kinomescan method relative to control.
For assay [10], the target named is BMP-2-inducible protein kinase (Homo sapiens) (UniProt Q9NSY1). As to the kind of experiment: Inhibition of wild-type human partial length BIKE (S34 to N329 residues) expressed in bacterial expression system at 10 uM by Kinomescan method relative to control.
Assay [11] has as its target Serine/threonine-protein kinase mTOR (Homo sapiens) (UniProt P42345). The assay can be described thus: Inhibition of wild-type human partial length MTOR (L1382 to W2549 residues) expressed in mammalian expression system at 10 uM by Kinomescan method relative to control.
In assay [12] the target is Serine/threonine-protein kinase Sgk1 (Homo sapiens) (UniProt O00141). As to the kind of experiment: Inhibition of wild-type human partial length SGK (I60 to L431 residues) expressed in mammalian expression system at 1 uM by Kinomescan method relative to control.
Assay [13] has as its target Phosphatidylinositol 4-kinase beta (Homo sapiens) (UniProt Q9UBF8). The assay can be described thus: Inhibition of wild-type human full length PIK4CB (M1 to M828 residues) expressed in mammalian expression system at 1 uM by Kinomescan method relative to control.
Assay [14] addresses Serine/threonine-protein kinase Sgk2 (Homo sapiens) (UniProt Q9HBY8). As to the kind of experiment: Inhibition of wild-type human partial length SGK2 (L54 to C427 residues) expressed in mammalian expression system at 1 uM by Kinomescan method relative to control.
Assay [15] has as its target Ephrin type-A receptor 6 (Homo sapiens) (UniProt Q9UF33). As to the kind of experiment: Inhibition of wild-type human partial length EPHA6 (Y700 to E1046 residues) expressed in bacterial expression system at 1 uM by Kinomescan method relative to control.
The target in assay [16] is Serine/threonine-protein kinase MRCK alpha (Homo sapiens) (UniProt Q5VT25). As to the kind of experiment: Inhibition of wild-type human partial length MRCKA (L57 to V418 residues) expressed in bacterial expression system at 1 uM by Kinomescan method relative to control.
Assay [17] addresses Mitogen-activated protein kinase kinase kinase 2 (Homo sapiens) (UniProt Q9Y2U5). As to the kind of experiment: Inhibition of wild-type human partial length MAP3K2 (S315 to H619 residues) expressed in mammalian expression system at 1 uM by Kinomescan method relative to control.
Assay [18] deals with STE20-like serine/threonine-protein kinase (Homo sapiens) (UniProt Q9H2G2). As to the kind of experiment: Inhibition of wild-type human partial length SLK (S14 to A307 residues) expressed in bacterial expression system at 1 uM by Kinomescan method relative to control.
Chain of STE20-like serine/threonine-protein kinase (Homo sapiens) (Q9H2G2 whole entry, looked up, the tested form may be a part): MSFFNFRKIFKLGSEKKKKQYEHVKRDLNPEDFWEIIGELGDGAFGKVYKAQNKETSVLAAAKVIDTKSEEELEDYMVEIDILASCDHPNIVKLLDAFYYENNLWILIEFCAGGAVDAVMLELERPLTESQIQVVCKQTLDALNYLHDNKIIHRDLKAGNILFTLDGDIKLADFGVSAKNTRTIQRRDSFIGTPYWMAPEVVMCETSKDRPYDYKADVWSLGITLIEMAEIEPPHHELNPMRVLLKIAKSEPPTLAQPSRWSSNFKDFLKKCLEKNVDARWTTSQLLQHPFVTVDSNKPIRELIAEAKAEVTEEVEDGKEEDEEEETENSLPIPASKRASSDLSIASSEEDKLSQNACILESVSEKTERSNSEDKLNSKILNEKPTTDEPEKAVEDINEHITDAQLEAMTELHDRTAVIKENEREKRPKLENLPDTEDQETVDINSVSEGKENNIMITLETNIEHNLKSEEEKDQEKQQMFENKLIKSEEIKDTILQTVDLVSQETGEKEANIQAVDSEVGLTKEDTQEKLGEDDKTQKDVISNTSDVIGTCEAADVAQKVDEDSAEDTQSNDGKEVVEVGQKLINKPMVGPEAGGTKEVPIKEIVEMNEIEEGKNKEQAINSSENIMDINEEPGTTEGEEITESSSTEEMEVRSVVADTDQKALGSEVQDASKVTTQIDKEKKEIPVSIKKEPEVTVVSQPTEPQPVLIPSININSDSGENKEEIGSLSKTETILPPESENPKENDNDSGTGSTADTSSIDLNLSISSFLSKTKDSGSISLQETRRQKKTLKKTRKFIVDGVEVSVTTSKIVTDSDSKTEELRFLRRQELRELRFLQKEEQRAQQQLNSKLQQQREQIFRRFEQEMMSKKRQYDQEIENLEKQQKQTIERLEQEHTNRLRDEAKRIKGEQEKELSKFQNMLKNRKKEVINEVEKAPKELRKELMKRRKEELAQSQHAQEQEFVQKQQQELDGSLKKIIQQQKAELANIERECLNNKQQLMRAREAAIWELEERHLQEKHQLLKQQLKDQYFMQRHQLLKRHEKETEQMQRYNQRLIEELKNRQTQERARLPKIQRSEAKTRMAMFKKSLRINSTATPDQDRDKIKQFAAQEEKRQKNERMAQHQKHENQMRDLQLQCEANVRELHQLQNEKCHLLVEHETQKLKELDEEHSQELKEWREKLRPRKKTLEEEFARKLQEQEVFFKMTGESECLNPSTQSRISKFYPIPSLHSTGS
In assay [19] the target is Receptor tyrosine-protein kinase erbB-4 (Homo sapiens) (UniProt Q15303). The assay can be described thus: Inhibition of wild-type human partial length ERBB4 (L690 to K994 residues) expressed in bacterial expression system at 1 uM by Kinomescan method relative to control.
In assay [20] the target is Dual specificity tyrosine-phosphorylation-regulated kinase 1B (Homo sapiens) (UniProt Q9Y463). As to the kind of experiment: Inhibition of wild-type human full length DYRK1B (M1 to S629 residues) expressed in bacterial expression system at 1 uM by Kinomescan method relative to control.
Chain of Dual specificity tyrosine-phosphorylation-regulated kinase 1B (Homo sapiens) (Q9Y463 whole entry, looked up, the tested form may be a part): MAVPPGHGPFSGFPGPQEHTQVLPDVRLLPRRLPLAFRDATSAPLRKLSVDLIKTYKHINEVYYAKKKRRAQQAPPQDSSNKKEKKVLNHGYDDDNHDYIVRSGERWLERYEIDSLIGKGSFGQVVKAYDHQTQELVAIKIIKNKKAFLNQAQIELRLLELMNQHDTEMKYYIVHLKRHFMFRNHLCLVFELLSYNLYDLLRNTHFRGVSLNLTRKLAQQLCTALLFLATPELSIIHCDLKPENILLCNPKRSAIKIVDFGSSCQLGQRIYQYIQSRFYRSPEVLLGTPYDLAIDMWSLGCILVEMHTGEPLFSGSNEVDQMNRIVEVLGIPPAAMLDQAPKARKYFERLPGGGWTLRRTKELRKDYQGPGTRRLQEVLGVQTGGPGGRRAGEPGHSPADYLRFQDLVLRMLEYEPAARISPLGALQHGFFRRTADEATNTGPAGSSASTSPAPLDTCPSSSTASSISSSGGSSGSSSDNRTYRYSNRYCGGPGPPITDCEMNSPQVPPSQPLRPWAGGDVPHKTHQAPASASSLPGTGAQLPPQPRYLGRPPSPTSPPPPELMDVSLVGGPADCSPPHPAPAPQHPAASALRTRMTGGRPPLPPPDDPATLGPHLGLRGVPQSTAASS
Assay [21] addresses Protein-tyrosine kinase 6 (Homo sapiens) (UniProt Q13882). The assay can be described thus: Inhibition of wild-type human partial length BRK (L166 to T451 residues) expressed in bacterial expression system at 1 uM by Kinomescan method relative to control.
Assay [22] concerns the target MAP kinase-interacting serine/threonine-protein kinase 1 (Homo sapiens) (UniProt Q9BUB5). The assay can be described thus: Inhibition of wild-type human full length MKNK1 (M1 to L424 residues) expressed in mammalian expression system at 1 uM by Kinomescan method relative to control.
For assay [23], the target named is Serine/threonine-protein kinase ICK (Homo sapiens) (UniProt Q9UPZ9). As to the kind of experiment: Inhibition of wild-type human partial length ICK (M1 to P314 residues) expressed in mammalian expression system at 1 uM by Kinomescan method relative to control.
In assay [24] the target is Receptor-interacting serine/threonine-protein kinase 4 (Homo sapiens) (UniProt P57078). The assay can be described thus: Inhibition of wild-type human partial length RIPK4 (M1 to V303 residues) expressed in mammalian expression system at 1 uM by Kinomescan method relative to control.
For assay [25], the system named is Phosphatidylinositol 4,5-bisphosphate 3-kinase catalytic subunit alpha isoform (Homo sapiens), P42336 [E545A]. The assay can be described thus: Inhibition of human partial length PIK3CA E545A mutant (R108 to N1068 residues) expressed in mammalian expression system at 1 uM by Kinomescan method relative to control.
In assay [26] the test system is Phosphatidylinositol 4,5-bisphosphate 3-kinase catalytic subunit alpha isoform (Homo sapiens), P42336 [C420R]. The assay can be described thus: Inhibition of human partial length PIK3CA C420R mutant (R108 to N1068 residues) expressed in mammalian expression system at 1 uM by Kinomescan method relative to control.
Chain of Phosphatidylinositol 4,5-bisphosphate 3-kinase catalytic subunit alpha isoform (Homo sapiens), P42336 [C420R] (P42336 whole entry C420R, the tested form may be a part, canonical isoform): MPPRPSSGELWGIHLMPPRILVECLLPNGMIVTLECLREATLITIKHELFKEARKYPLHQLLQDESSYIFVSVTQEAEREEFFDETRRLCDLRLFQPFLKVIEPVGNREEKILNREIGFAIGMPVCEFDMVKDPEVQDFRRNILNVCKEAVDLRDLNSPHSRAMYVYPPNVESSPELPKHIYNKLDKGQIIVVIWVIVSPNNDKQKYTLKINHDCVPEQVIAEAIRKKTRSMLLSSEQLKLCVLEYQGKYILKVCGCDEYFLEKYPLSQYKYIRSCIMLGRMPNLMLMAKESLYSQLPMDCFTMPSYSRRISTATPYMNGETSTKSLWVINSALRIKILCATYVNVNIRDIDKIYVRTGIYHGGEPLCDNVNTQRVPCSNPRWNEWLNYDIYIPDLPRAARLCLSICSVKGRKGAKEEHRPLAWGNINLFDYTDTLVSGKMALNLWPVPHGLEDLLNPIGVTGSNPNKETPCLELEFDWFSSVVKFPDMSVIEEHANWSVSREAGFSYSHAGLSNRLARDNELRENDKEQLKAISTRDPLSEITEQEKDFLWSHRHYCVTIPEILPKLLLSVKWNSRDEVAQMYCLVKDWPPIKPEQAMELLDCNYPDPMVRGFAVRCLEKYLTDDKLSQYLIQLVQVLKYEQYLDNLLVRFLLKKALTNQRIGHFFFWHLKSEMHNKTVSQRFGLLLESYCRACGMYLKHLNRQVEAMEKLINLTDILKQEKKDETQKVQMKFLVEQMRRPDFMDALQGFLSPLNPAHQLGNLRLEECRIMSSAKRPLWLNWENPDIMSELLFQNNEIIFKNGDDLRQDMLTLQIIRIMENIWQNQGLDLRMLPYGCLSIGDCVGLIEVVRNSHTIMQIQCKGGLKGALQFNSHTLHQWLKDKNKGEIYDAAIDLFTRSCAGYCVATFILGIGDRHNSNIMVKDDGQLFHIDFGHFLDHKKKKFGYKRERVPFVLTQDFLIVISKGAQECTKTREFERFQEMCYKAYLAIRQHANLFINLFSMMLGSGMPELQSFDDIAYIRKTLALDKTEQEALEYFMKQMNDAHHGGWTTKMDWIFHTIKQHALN

Chain of Serine/threonine-protein kinase Sgk2 (Homo sapiens) (Q9HBY8 whole entry, the tested form may be a part): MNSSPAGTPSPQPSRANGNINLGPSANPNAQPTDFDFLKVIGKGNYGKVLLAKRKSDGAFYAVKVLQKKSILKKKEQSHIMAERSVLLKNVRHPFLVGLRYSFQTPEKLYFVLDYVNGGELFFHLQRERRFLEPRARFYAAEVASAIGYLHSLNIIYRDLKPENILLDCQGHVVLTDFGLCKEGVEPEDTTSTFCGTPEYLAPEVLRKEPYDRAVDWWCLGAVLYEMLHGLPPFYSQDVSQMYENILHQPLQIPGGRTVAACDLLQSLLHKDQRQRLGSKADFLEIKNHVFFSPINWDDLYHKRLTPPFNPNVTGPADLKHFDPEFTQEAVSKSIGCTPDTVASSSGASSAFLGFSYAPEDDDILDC
Chain of Mitogen-activated protein kinase kinase kinase 2 (Homo sapiens) (Q9Y2U5 whole entry, the tested form may be a part): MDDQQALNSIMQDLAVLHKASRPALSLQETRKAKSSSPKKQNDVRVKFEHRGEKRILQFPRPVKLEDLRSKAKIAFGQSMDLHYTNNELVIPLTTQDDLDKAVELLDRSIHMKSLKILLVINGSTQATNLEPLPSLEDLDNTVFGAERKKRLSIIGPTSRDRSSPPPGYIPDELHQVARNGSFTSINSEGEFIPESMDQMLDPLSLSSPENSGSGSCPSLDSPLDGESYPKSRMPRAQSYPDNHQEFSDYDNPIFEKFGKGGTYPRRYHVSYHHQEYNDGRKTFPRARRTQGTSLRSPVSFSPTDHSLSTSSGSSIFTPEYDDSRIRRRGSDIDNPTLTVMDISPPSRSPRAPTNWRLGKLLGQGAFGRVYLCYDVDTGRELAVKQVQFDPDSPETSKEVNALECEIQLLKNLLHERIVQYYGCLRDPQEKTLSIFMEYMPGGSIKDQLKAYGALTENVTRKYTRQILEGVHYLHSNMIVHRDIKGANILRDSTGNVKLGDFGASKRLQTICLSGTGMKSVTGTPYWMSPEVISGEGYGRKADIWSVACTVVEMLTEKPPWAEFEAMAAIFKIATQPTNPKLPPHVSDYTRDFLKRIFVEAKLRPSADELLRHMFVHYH
Chain of Mitogen-activated protein kinase kinase kinase 14 (Homo sapiens) (Q99558 whole entry, looked up, the tested form may be a part): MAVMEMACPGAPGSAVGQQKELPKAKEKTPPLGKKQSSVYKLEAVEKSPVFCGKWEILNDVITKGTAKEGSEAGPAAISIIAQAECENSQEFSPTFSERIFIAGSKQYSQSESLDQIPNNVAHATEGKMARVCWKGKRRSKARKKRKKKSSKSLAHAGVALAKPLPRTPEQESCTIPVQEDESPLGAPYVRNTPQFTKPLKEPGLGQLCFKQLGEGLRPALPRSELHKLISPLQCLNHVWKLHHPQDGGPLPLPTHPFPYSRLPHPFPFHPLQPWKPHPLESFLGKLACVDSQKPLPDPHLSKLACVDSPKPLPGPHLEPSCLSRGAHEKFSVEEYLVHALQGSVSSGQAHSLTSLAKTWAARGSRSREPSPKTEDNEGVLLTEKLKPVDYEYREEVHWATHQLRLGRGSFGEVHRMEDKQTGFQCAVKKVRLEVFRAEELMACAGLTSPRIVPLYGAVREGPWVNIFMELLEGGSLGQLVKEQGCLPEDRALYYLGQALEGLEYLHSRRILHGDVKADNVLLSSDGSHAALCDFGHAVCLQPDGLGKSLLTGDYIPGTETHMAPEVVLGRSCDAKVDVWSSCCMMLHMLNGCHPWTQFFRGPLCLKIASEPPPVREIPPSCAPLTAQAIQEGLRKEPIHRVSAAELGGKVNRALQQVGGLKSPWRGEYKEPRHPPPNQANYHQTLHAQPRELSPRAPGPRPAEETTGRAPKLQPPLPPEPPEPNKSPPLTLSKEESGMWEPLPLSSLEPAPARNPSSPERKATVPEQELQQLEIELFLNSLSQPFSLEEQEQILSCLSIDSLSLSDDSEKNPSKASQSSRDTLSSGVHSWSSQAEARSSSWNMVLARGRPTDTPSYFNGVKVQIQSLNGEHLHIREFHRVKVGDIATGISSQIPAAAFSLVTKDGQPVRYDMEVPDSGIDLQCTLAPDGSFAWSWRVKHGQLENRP

With `O=C(Nc1cccc([C@H]2CCCN(c3ncnc4[nH]ccc34)C2)c1)Nc1ccccc1N1CCCC1`, the inhibition in assay [1] is 100%; in assay [2] it was 3.5%; in [3], 63%; in assay [4], 98%; in assay [5] it was 61%; in [6] it was 75%. The inhibition in assay [7] was 100%; in assay [8], 26%; in [9], 44%; in assay [10], 0%; in [11], 98%.

In the case of `O=C(Nc1cccc([C@@H]2CN(c3ncnc4[nH]ccc34)CCN2CCO)c1)Nc1c(F)cccc1N1CCCC1`, the inhibition in assay [12] is 64%; in assay [13] it was 100%; in assay [14], 63%; in assay [15], 99%; in [16] it was 100%; in assay [17], 40%. For the same compound, the inhibition turned out to be 88% in [18]; 100% in assay [19]; 95% in [20]; 99% in assay [21]; 88% in assay [22]; 100% in [23]. In addition, the inhibition in assay [24] was found to be 80%; in [25] it was 65%; in [26] it was 89%.

The term inhibition denotes the change of the read-out against control, counted positive when it falls.
